Measurements published in patent US11452725B2, “Chiral diaryl macrocycles and uses thereof” (TURNING POINT THERAPEUTICS, INC., priority 2015, dated 2022).

How the values were obtained:
[1] = tested on: EGFR; experiment: EGFR expression by immunoblotting in H2228 cells; assay type: cell-based, human; settings: 4 and 24 hour exposure, 0-1000 nM
Protocol: (§1) NSCLC cell line H2228 (harboring endogenous EML4-ALK fusion gene) was cultured in RPMI medium supplemented with 10% fetal bovine serum and 100 U/mL of penicillin/streptomycin. Ba/F3 and NIH3T3 cells stably expressing ROS1, or TRKA, or TRKB, or TRKC (WT or mutant) were cultured as mentioned above. […] Cells were collected after treatment and lysed in RIPA buffer (50 mM Tris, pH 7.4, 150 mM NaCl, 1% NP-40, 0.5% Deoxycholate, 0.1% SDS) supplemented with 10 mM EDTA, 1× Halt protease and phosphatase inhibitors (Thermo Scientific). Protein lysates (approximately 20 μg) was resolved on 4-12% Bolt Bis-Tris precasted gels with MES running buffer (Life Technologies), transferred to nitrocellulose membranes using Trans-Blot Turbo Transfer System (Bio-Rad) and detected with antibodies targeting phosphorylated phosphorylated ROS1 and total ROS1 (Cell Signaling Technology), phosphorylated TRK A/B (Cell Signaling Technology), total TRKA antibody (Santa Cruz Biotechnology), phosphorylated SRC Y416 (Cell Signaling Technology), total SRC (Cell Signaling Technology), phosphorylated FAK Y576/577 (Cell Signaling Technology), total FAK (Cell Signaling Technology), phosphorylated paxillin Y118 (Cell Signaling Technology), total paxillin (Cell Signaling Technology), phosphorylated EGFR and total EGFR, CD44, and Tubulin (Sigma). […]

[2] = target: T1, JAK1 (Homo sapiens, UniProt P23458); experiment: Biochemical kinase assay (Reaction Biology); settings: 10 μM ATP
T1 construct: purchased Reaction Biology Corporation (contract assay)
Protocol: (§2) Specific kinase/substrate pairs along with required cofactors were prepared in reaction buffer; 20 mM Hepes pH 7.5, 10 mM MgCl2, 1 mM EGTA, 0.02% Brij35, 0.02 mg/ml BSA, 0.1 mM Na3VO4, 2 mM DTT, 1% DMSO (for specific details of individual kinase reaction components see Supplementary Table 2). Compounds were delivered into the reaction, followed ˜20 minutes later by addition of a mixture of ATP (Sigma, St. Louis Mo.) and ^33P ATP (Perkin Elmer, Waltham Mass.) to a final concentration of 10 μM. Reactions were carried out at room temperature for 120 min, followed by spotting of the reactions onto P81 ion exchange filter paper (Whatman Inc., Piscataway, N.J.). […] IC50 values and curve fits were obtained using Prism (GraphPad Software).

[3] = tested on: Ba/F3 EML4-ALK L1152P cell line; experiment: Cell proliferation assay (CellTiter-Glo); assay type: cell-based; settings: Mus musculus, 72 hours
[4] = target: ARK5 (Homo sapiens, UniProt O60285); experiment: Biochemical kinase assay (Reaction Biology); settings: 10 μM ATP
Protocol: as §2

[5] = target: T2, HCK (Homo sapiens, UniProt P08631); experiment: Biochemical kinase assay (Reaction Biology); settings: 10 μM ATP
T2 construct: purchased Reaction Biology Corporation (contract assay)
Protocol: as §2

[6] = target: NPM-ALK (Homo sapiens, UniProt Q9UM73); experiment: In vivo pharmacodynamics: ALK phosphorylation in Karpas 299 tumors (immunoblotting); design: species or system mice
Protocol: Mice bearing xenograft tumors were humanely euthanized and tumors were resected and snap frozen in liquid nitrogen and stored at −80° C. Frozen tumor samples were processed at 4° C. in 1× Cell Lysis Buffer (Cell Signaling Technologies) to extract proteins. SDS loading samples were prepared by adding one volume of 4×LDS Sample Buffer (Life Technologies, Inc) to three volumes of protein lysate. Tumor SDS protein samples were processed by SDS-PAGE and immunoblotted with rabbit anti-phosphorylated ALK and mouse anti-actin antibodies (Cell Signaling Technologies). The signals from immunoblot were detected by C-DiGit Blot Scanner from LI-COR and the signal intensity were quantified using the Image Studio Digit software (LI-COR).
The level of ALK phosphorylation was determined by immunoblotting combined with signal quantification by the Image Studio Digit Software. […] At the dose of 15 mg/kg, ALK phosphorylation was reduced to <10% of the control level at 3 hours post oral administration and was maintained at about 21% of the control level at 12 hours post dosing.

[7] = target: T3, BLK (Homo sapiens, UniProt P51451); experiment: Biochemical kinase assay (Reaction Biology); settings: 10 μM ATP
T3 construct: purchased Reaction Biology Corporation (contract assay)
Protocol: as §2

[8] = target: T4, TNK2 (Homo sapiens, UniProt Q07912); experiment: Biochemical kinase assay (Reaction Biology); settings: 10 μM ATP
T4 construct: purchased Reaction Biology Corporation (contract assay)
Protocol: as §2

[9] = target: T5, JAK3 (Homo sapiens, UniProt P52333); experiment: Biochemical kinase assay (Reaction Biology); settings: 10 μM ATP
T5 construct: purchased Reaction Biology Corporation (contract assay)
Protocol: as §2

[10] = tested on: NCI-H2228 cell line; experiment: Cell proliferation assay (CellTiter-Glo); assay type: cell-based; settings: Homo sapiens, 72 hours, EML4-ALK fusion gene
Protocol: Two thousand cells per well were seeded in 384 well white plate for 24 hrs, and then treated with compounds for 72 hours (37° C., 5% CO2). Cell proliferation was measured using CellTiter-Glo luciferase-based ATP detection assay (Promega) following the manufactures's protocol. IC50 determinations were performed using GraphPad Prism software (GraphPad, Inc., San Diego, Calif.).

[11] = Body weight of mice in xenograft studies; assay type: in vivo
Protocol: Female athymic nude mice and SCID/Beige mice (5-8 weeks of age) were obtained from Charles River Laboratory and were housed in Innovive IVC disposable cages on HEPA filtered ventilated racks with ad libitum access to rodent chow and water. Five million cells in 100 μL, serum-free medium were implanted subcutaneously in the right flank region of the mouse. Karpas299 cells were implanted into the SCID/Beige mice. KM12 cells, NIH3T3 EML4-ALK wild type mutant cells, and NIH3T3 SCD4-ROS1 wild type mutant cells were implanted into the athymic nude mice, respectively. All models except KM12 were implanted with 50% matrigel (Corning, Inc) in the medium. Tumor size and body weight were measured on designated days. Tumor size was measured with an electronic caliper and tumor volume was calculated as the product of length*width^2*0.5.
Female athymic nude mice and SCID/Beige mice (5-8 weeks of age) were obtained from Charles River Laboratory and were housed in Innovive IVC disposable cages on HEPA filtered ventilated racks with ad libitum access to rodent chow and water. Five million cells in 100 μL serum-free medium were implanted subcutaneously in the right flank region of the mouse. Ba/F3 EML4-ALK wild type and G1202R mutant cells, Ba/F3 CD74-ROS1 wild type and G2032R mutant cells were implanted into the SCID/Beige mice. NIH3T3 CD74-ROS1 G2032 mutant cells, NIH3T3 LMNA-TRKA wild type and G595R mutant cells were implanted into the athymic nude mice, respectively. All models were implanted with 50% matrigel (Corning, Inc) in the medium. Tumor size and body weight were measured on designated days. Tumor size was measured with an electronic caliper and tumor volume was calculated as the product of length*width^2*0.5.

[12] = tested on: paxillin; experiment: Immunoblotting SRC substrate phosphorylation, NCI-H2228 cells; assay type: cell-based; settings: Homo sapiens; NCI-H2228 cell line
Protocol: as §1

Sequence of NPM-ALK (Q9UM73 with tags, fused parts or gaps): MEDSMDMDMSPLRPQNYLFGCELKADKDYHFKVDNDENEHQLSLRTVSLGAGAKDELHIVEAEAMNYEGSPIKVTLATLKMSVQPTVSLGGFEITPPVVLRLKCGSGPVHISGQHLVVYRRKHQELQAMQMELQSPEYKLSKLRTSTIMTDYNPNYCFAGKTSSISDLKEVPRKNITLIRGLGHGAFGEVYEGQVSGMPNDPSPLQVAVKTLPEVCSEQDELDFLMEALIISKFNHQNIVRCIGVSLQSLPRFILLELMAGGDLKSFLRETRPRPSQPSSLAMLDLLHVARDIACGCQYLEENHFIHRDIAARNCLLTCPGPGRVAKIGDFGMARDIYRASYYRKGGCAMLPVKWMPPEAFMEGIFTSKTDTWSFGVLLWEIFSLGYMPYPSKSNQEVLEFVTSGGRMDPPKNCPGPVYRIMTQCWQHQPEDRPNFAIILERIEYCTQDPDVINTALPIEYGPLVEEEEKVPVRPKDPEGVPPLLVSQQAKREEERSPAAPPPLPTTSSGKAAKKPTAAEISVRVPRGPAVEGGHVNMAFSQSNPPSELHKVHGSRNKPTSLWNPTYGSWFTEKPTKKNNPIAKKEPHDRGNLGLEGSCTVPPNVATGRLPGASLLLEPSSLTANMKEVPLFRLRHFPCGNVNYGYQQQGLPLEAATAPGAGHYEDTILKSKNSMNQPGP
Sequence of ARK5 (O60285 whole entry): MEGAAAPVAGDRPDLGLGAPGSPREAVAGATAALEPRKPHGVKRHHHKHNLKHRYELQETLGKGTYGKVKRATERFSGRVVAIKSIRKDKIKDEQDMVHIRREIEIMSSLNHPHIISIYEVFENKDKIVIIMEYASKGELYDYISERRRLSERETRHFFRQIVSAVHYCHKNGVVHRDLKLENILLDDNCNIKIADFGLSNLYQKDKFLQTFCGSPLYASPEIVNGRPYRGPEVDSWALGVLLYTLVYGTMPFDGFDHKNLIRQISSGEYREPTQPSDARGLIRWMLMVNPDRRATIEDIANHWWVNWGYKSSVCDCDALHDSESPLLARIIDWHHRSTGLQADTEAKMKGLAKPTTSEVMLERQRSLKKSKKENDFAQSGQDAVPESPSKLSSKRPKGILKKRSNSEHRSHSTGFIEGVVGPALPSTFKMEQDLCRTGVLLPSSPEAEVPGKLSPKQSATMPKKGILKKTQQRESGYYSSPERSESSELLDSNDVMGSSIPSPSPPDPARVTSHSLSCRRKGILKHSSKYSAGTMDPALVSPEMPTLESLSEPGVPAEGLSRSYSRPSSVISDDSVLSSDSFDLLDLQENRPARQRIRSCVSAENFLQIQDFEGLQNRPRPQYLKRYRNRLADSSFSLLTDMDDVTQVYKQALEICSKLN
T1 sequence (P23458 whole entry): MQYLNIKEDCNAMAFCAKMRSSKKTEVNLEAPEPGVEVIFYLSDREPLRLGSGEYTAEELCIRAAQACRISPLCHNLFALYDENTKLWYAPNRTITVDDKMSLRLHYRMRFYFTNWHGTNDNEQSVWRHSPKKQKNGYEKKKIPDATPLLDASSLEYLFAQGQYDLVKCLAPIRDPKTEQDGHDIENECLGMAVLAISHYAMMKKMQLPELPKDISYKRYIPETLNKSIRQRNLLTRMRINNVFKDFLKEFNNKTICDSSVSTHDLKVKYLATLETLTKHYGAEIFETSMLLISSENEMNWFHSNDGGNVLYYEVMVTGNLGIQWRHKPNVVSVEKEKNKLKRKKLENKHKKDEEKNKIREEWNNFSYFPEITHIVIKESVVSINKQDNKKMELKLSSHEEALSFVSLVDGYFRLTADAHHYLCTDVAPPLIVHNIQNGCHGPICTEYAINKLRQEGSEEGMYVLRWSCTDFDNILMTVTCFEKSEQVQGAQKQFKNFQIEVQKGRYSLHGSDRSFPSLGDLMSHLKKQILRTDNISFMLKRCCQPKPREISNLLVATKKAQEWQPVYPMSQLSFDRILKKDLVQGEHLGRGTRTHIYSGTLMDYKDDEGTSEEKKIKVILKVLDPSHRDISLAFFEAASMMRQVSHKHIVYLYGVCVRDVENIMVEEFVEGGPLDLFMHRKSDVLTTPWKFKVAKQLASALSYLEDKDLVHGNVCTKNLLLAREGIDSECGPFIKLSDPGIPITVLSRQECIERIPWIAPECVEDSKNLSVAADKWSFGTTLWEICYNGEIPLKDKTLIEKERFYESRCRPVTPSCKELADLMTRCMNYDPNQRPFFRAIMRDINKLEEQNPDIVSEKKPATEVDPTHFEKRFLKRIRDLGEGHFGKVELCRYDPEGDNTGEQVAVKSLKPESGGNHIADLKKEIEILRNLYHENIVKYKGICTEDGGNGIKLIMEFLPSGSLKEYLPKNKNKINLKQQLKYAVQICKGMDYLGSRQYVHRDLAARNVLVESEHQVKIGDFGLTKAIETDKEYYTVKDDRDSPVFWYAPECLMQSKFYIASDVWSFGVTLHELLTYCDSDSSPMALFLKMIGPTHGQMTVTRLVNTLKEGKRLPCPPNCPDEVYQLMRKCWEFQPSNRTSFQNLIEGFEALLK
T5 sequence (P52333 whole entry): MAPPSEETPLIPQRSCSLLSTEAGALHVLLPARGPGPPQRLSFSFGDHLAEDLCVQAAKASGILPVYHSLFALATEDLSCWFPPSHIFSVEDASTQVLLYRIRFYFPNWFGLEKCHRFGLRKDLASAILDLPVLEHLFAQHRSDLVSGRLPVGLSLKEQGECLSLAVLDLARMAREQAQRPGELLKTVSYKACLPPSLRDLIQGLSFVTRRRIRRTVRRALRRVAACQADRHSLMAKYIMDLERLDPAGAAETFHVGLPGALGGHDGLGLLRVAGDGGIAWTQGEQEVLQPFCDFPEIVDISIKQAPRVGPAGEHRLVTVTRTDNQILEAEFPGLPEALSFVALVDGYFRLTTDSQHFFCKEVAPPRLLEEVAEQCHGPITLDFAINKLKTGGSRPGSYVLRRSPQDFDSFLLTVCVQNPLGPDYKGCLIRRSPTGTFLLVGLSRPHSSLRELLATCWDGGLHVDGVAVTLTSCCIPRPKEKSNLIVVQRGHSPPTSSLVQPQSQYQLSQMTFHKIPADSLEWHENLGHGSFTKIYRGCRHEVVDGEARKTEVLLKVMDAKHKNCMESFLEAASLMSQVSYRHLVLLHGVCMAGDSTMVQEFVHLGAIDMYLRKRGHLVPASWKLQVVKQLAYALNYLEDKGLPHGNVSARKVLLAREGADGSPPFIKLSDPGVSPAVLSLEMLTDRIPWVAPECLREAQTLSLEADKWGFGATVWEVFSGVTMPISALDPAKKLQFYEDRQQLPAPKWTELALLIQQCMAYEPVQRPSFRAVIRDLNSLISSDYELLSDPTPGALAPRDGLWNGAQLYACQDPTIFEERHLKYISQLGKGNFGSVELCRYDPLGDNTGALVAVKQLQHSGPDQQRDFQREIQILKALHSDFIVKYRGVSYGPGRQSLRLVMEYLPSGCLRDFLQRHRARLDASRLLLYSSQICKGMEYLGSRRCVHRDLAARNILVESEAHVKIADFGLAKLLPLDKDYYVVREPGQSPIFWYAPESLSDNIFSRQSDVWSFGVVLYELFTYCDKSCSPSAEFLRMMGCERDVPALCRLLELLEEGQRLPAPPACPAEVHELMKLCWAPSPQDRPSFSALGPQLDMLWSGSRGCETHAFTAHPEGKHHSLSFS
T4 sequence (Q07912 whole entry): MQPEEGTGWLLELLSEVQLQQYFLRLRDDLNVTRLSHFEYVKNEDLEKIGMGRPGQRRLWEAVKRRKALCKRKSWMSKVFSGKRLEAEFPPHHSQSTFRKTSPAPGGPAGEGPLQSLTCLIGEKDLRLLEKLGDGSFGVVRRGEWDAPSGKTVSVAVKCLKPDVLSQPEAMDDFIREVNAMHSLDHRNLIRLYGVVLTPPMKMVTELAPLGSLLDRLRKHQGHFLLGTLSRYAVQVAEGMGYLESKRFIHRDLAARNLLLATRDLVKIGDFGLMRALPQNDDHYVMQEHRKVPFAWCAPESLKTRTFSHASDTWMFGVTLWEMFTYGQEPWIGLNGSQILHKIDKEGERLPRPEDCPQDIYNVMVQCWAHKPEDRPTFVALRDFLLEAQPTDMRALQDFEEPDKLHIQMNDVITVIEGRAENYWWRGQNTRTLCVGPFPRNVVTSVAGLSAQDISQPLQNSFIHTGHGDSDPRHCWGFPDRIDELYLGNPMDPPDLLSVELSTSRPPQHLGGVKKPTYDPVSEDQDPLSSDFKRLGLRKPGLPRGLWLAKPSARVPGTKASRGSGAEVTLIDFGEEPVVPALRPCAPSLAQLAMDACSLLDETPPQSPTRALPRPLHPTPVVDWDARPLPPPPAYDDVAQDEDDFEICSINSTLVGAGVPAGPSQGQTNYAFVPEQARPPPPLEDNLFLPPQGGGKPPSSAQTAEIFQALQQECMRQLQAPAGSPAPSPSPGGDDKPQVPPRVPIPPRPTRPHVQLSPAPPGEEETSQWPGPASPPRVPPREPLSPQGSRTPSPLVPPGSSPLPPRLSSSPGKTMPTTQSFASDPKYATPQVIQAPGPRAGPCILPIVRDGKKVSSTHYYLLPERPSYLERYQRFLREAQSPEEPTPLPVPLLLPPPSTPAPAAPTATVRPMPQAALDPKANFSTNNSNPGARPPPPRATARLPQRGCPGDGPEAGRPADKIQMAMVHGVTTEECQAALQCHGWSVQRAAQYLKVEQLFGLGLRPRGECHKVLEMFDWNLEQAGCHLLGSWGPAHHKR

Structure (SMILES): C[C@H]1CNC(=O)c2cnn3ccc(nc23)N[C@H](C)c2cc(F)ccc2O1 [Compound 1, (7S,13R)-11-fluoro-7,13-dimethyl-6,7,13,14-tetrahydro-1,15-ethenopyrazolo[4,3-f][1,4,8,10]benzoxatriazacyclotridecin-4(5H)-one]
- EGFR expression [1]: down-regulated EGFR expression in a dose- and time-dependent manner
- IC50 [2]: 19 nM
- IC50 [3]: 85 nM
- IC50 [4]: 4.46 nM
- IC50 [5]: 16.4 nM
- ALK phosphorylation, % of the control level ([6]; 15 mg/kg BID 7 days, 3 hours post oral administration): < 10%
- ALK phosphorylation, % of the control level ([6]; 15 mg/kg BID 7 days, 12 hours post dosing): about 21%
- ALK phosphorylation, % of the control level ([6]; 50 mg/kg BID 7 days, 3 hours post oral administration): < 5%
- ALK phosphorylation, % of the control level ([6]; 50 mg/kg BID 7 days, 12 hours post dosing): about 10%
- IC50 [7]: 32.3 nM
- IC50 [8]: 24.1 nM
- IC50 [9]: 50 nM
- IC50 [10]: 73 nM
- Body weight of the mice ([11]; Ba/F3 CD74-ROS1 G2032R model, 15 and 75 mg/kg BID, 11 days): no body weight loss was observed
- Body weight of the mice ([11]; Ba/F3 CD74-ROS1 WT model, 15 and 75 mg/kg BID, 12 days): no body weight loss was observed
- Body weight of the mice ([11]; Ba/F3 EML4-ALK G1202R model, 15 and 75 mg/kg BID, 17 days): no body weight loss was observed
- Body weight of the mice ([11]; Ba/F3 EML4-ALK WT model, 15 and 75 mg/kg BID, 14 days): no body weight loss was observed
- Body weight of the mice ([11]; KM12 model Example 13, 15 and 75 mg/kg BID, seven days): No loss of body weight
- Body weight of the mice ([11]; KM12 model Example 15, 1, 3 and 15 mg/kg BID, seven days): No loss of body weight
- Body weight of the mice ([11]; Karpas 299 model, 15 and 50 mg/kg BID, seven days): no body weight loss was observed
- Body weight of the mice ([11]; NIH3T3 EML4-ALK WT model, 15 and 50 mg/kg BID, 12 days): no body weight loss was observed
- Body weight of the mice ([11]; NIH3T3 LMNA-TRKA G595R model, 3, 15 and 60 mg/kg BID, five days): no body weight loss was observed
- Body weight of the mice ([11]; NIH3T3 LMNA-TRKA WT model, 3 and 15 mg/kg BID, five days): No loss of body weight
- IC50 [12]: ~103 nM
